In patent EP0345356A1, “PLATINUM COMPLEX AND THERAPEUTIC AGENT FOR MALIGNANT TUMOR” (TORAY INDUSTRIES, INC., priority 1987, dated 1989):
“And” between values parts separate entries of the source, which are not always exact repeats. Equal values may be shown once.

Legend:
[1] = tested on: L1210 murine leukemia cells; assay: Antitumor activity against L1210 leukemia in mice; type: in vivo, CDF1 mice; conditions: for Survival days (mean ± SD) / T/C (%): given on 1st, 5th and 9th days after tumor inoculation; for Survival rate: number of 30 days survival mice / group
Method: L1210 murine leukemia cells which were subcultured in DBA/2 mouse were inoculated intraperitoneally into CDF1 mice at 10^5 cells/mouse. Each experimental group was composed of 6-10 mice (male, 6-weeks old). Each test compound was administered three times, i.e., on the 1st, 5th and 9th days after tumor inoculation. […] Each compound was dissolved or suspended in 0.05% "Tween 80" solution and administered in mice.

Slc:ICR mice = assay: Acute toxicity test in mice (LD50, Miller-Tainter method); type: in vivo; conditions: intraperitoneal, Slc:ICR mice (male), death rate on the 14th day
Method: Platinum complexes to be tested was administered intraperitoneally to Slc:ICR mice (male, 5 weeks old, 6 mice/group). Each complex was used in the form of a solution or suspension in a 0.05% "Tween 80" in saline. The LD50 value was calculated by the Miller-Tainter method from the death rate on the 14th day from the date of the administration.

With NC1CCCCC1N.O=C([O-])c1ccc(=O)oc1.O=C([O-])c1ccc(=O)oc1.[Pt+2] [XXII-1, bis(2-pyrone-5-carboxylato)(trans-ℓ-dach)platinum(II)] the “Survival days (mean ± SD)” value ([1]; Dose 1 mg/kg, 1 mg/kg) was 9.0 ± 0.9 days and 11.3 ± 0.8 days, the “T/C (%)” value ([1]; Dose 1 mg/kg, 1 mg/kg) was 108% and 140% and the Survival rate ([1]; Dose 1 mg/kg) was 0/6. The Survival rate ([1]; Dose 10 mg/kg, 10 mg/kg) was 0/6 and 2/6, the Survival rate ([1]; Dose 25 mg/kg, 25 mg/kg) was 0/6 and 3/6 and the “Survival days (mean ± SD)” value ([1]; Dose 50 mg/kg, 50 mg/kg) was 15.2 ± 3.1 days and 17.8 ± 2.8 days. The “T/C (%)” value ([1]; Dose 50 mg/kg, 50 mg/kg) was 183% and 220%, the Survival rate ([1]; Dose 50 mg/kg) was 0/6 and the “Survival days (mean ± SD)” value ([1]; Dose 100 mg/kg, 100 mg/kg) was 20.7 ± 7.2 days and 12.3 ± 2.7 days. For the same compound, the “T/C (%)” value ([1]; Dose 100 mg/kg, 100 mg/kg) was 249% and 152%, the Survival rate ([1]; Dose 100 mg/kg, 100 mg/kg) was 1/6 and 0/6 and the Survival rate ([1]; Dose 200 mg/kg) was 0/6. The LD50 values (Slc:ICR mice) was >200 mg/kg.
In the case of NC1CCCCC1N.O=C([O-])c1cc2ccccc2[nH]1.O=C([O-])c1cc2ccccc2[nH]1.[Pt+2] [XXIII-1, Bis(indole-2-carboxylato)(trans-ℓ-dach)platinum(II)], the “Survival days (mean ± SD)” value ([1]; Dose 1 mg/kg) is reported as 8.5 ± 0.8 days, the “T/C (%)” value ([1]; Dose 1 mg/kg) is reported as 102% and the Survival rate ([1]; Dose 1 mg/kg) is reported as 0/6. For the same compound, the “Survival days (mean ± SD)” value ([1]; Dose 10 mg/kg) was 10.5 ± 1.0 days, the “T/C (%)” value ([1]; Dose 10 mg/kg) was 127% and the Survival rate ([1]; Dose 10 mg/kg) was 0/6. For the same compound, the “Survival days (mean ± SD)” value ([1]; Dose 25 mg/kg) was 15.0 ± 5.4 days, the “T/C (%)” value ([1]; Dose 25 mg/kg) was 181% and the Survival rate ([1]; Dose 25 mg/kg) was 0/6. For the same compound, the “Survival days (mean ± SD)” value ([1]; Dose 50 mg/kg) was 18.7 ± 9.2 days, the “T/C (%)” value ([1]; Dose 50 mg/kg) was 225% and the Survival rate ([1]; Dose 50 mg/kg) was 1/6. For the same compound, the “Survival days (mean ± SD)” value ([1]; Dose 100 mg/kg) was 21.2 ± 7.9 days, the “T/C (%)” value ([1]; Dose 100 mg/kg) was 255% and the Survival rate ([1]; Dose 100 mg/kg) was 2/6. The “Survival days (mean ± SD)” value ([1]; Dose 200 mg/kg) was 8.2 ± 1.9 days, the “T/C (%)” value ([1]; Dose 200 mg/kg) was 99% and the Survival rate ([1]; Dose 200 mg/kg) was 0/6. For the same compound, the LD50 values (Slc:ICR mice) was 180 mg/kg.
For NC1CCCCC1N.O=C([O-])c1ccco1.O=C([O-])c1ccco1.[Pt+2] (stereo not drawn) [XXIV-1, Bis(2-furancarboxylato)(trans-ℓ-dach)platinum(II)], the “Survival days (mean ± SD)” value ([1]; Dose 1 mg/kg) was 9.5 ± 0.8 days, the “T/C (%)” value ([1]; Dose 1 mg/kg) was 117% and the Survival rate ([1]; Dose 1 mg/kg) was 0/6. The “Survival days (mean ± SD)” value ([1]; Dose 10 mg/kg) was 14.2 ± 2.9 days, the “T/C (%)” value ([1]; Dose 10 mg/kg) was 175% and the Survival rate ([1]; Dose 10 mg/kg) was 0/6. The “Survival days (mean ± SD)” value ([1]; Dose 25 mg/kg) was 20.2 ± 4.9 days, the “T/C (%)” value ([1]; Dose 25 mg/kg) was 249% and the Survival rate ([1]; Dose 25 mg/kg) was 1/6. The “Survival days (mean ± SD)” value ([1]; Dose 50 mg/kg) was 17.3 ± 6.3 days, the “T/C (%)” value ([1]; Dose 50 mg/kg) was 214% and the Survival rate ([1]; Dose 50 mg/kg) was 1/6. The “Survival days (mean ± SD)” value ([1]; Dose 100 mg/kg) was 9.0 ± 1.5 days, the “T/C (%)” value ([1]; Dose 100 mg/kg) was 111% and the Survival rate ([1]; Dose 100 mg/kg) was 0/6. The “Survival days (mean ± SD)” value ([1]; Dose 200 mg/kg) was 6.0 days, the “T/C (%)” value ([1]; Dose 200 mg/kg) was 74% and the Survival rate ([1]; Dose 200 mg/kg) was 0/6. For the same compound, the LD50 values (Slc:ICR mice) was 87 mg/kg.
